Laboratory results taken from EP1495019B1, “GLUCOPYRANOSIDE, PROCESS FOR ISOLATION THEREOF, PHARMACEUTICAL COMPOSITION CONTAINING SAME AND USE THEREOF” (COUNCIL OF SCIENTIFIC AND INDUSTRIAL RESEARCH, priority 2002, dated 2003).

System: Wistar rats
Assay: hypoglycaemic activity in 18 hour fasted Wistar rats
Format: in vivo
Method: The compound was evaluated for hypoglycaemic activity in 18 hour fasted Wistar rats. […] The mean fall recorded was 24 mg/100 ml blood, from an initial mean of 91 to mean of 67 mg/100 ml blood.

SMILES | mean fall (positive control, dose not given) | hypoglycaemic effect (dose of 15 mg/kg p.o.) | mean (after treatment) (dose of 15 mg/kg p.o., from an initial mean of 91) | mean fall (dose of 15 mg/kg p.o., initial mean of 91 mg/100 ml blood)
CCCNC(=O)NS(=O)(=O)c1ccc(Cl)cc1 [chlorpropamide, reference compound] | 18 mg/100 ml of blood |  |  | 
OC[C@H]1O[C@@H](c2c(O)ccc3cc(Cc4ccc(O)cc4)oc23)[C@H](O)[C@@H](O)[C@@H]1O [formula 1, 6-hydroxy-2-p-hydroxybenzylbenzofuran-7-C-β-D-glucopyranoside] |  | hypoglycaemic effect was recorded in all the treated rats | 67 mg/100 ml blood | 24 mg/100 ml blood
